Literature values, collected in patent US6127342A, “Method for preventing or treating a lung disease caused by active oxygen and free radical injury” (Teijin Limited, priority 1991, dated 2000).

Tested on: glutathione peroxidase
Conditions: Flohe, et al.; cited from earlier work

In the case of `COC(=O)[C@H](CS)NC(=O)CC[C@H](N)C(=O)O`, the “efficiency as substrate of glutathione peroxidase compared with glutathione” value is given as 20-30%.
